Experimental findings from patent publication EP2292587A1, “PHARMACEUTICAL COMPOSITION FOR INHIBITING THE TRANSCRIPTION FACTOR INDUCIBLE BY HYPOXIA, MODULATORS OF PATHOLOGICAL PROCESSES OF ANGIOGENESIS, ONCOGENESIS, INFLAMMATION, APOPTOSIS, AND CELLULAR THERAPY” (Fundacion De La Comunidad Valenciana Centro De …, priority 2008, dated 2009) are described below.

The term IC50 denotes the point on the concentration scale where inhibition reaches its midpoint.

“Also recorded” adds a separate entry of the source.

In one data set the test system is PHD3 and VEGF. Put plainly: qPCR of PHD3 and VEGF in primary culture of epNSCs. Format: cell-based, rat. The settings on record: 500 nM, hypoxia (1% O2), 6 to 24 hours. From the text:
Adult Wistar rats of between 2 to 3 months of age were used (the animals were handled following the mode of action which complies with section 2.1 (acceptable methods of euthanasia) of the document prepared for the DGXI of the European Commission regarding the protection of animals used for experimentation and other scientific purposes (No. L358, ISSN 0378-6978) and after the approval of the protocols by the Committee for Animal Care and Wellbeing of the Centro de Investigación Principe Felipe, Valencia, SPAIN). Once the animals were sacrificed, the dorsal part of the spinal cord was dissected and the tissue was maintained, at 4°C, in washing medium (DPBS-glucose) for its processing. To reduce the percentage of connective tissue cells the meninges as well as the most superficial blood vessels were removed. […]
Total RNA was isolated using the commercial kit RNAeasy (Qiagen) and following the manufacturer's instructions. […] The quantitative polymerase chain reaction (qPCR) was carried out using Taqman probes and primers designed by Applied Biosystem for rVEGF (Ref Rn00582935_m1), rPHD3 (Ref Rn00571341_m1) and rGAPDH (Ref Rn01775763_g1). […] The expression levels of VEGF and PHD3 were expressed as the increase of Ct with respect to the expression levels of GAPDH (constitutive expression gene): Ct (ΔCt)=Ct (VEGF or PHD3)-Ct (GAPDH). […]
(Quantitative PCR measures a nucleic acid by following its amplification.)

Data set [1] concerns medaka (Oryzias latipes) embryos. As to the kind of experiment: toxicity on medaka embryos. Format: in vivo. The method, then:
In the first place, for the zebrafish embryos, various experiments were performed with 10, 6 and 4 embryos per well in a volume of 100 microl, in early (between 1 and 8) and late (more than 20) stages of 1 x Yamamoto buffer, culturing the embryos at 26°C for 24 hours, and the compound FM19G11 was subsequently added at concentrations of 10 microM and 50 microM with negative controls without additives to analyze the endogenous mortality of the embryos and with 1% and 5% DMSO (solvent of the compound) to analyze the mortality of the solvent. In all the cases the solvent induced a high lethality between 60% and 90%.
The same experiments were performed using medaka embryos for which DMSO has not lethal effects at concentrations less than 5%. Six embryos per well, a final volume of 100 µl and independent experiments with embryos in blastula and neurula stages were used.
To prevent the possibility that FM19G11 may not be traversing the protective layer of the embryo (chorion), the compound at a concentration of 0.5 mM was microinjected into the chorionic space (between the embryo and the chorion). Experiment 1: n=15, 20% induced mortality, DMSO control = 0%. The result was the same, no anomaly being observed in the development of the embryo, nor any effect on the viability of the injected embryos. The images of Figure 19 show medaka embryos subjected to the treatment with FM19G11 at 50 microM for 4 days (A) 10 medaka embryos in a well of a multi-well plate; B and C, photos of embryos treated with 50 microM FM19G11 for 1 day; and D a photo of a medaka embryo which was not treated with the compound.

For a further data set, the system named is HCT116/p53+/+. As to the kind of experiment: clonicity assay, HCT116/p53+/+. In kind it is cell-based. The settings on record: Homo sapiens, HCT-116; stimulated 72 hours, colonies counted after 10 days; read-out: survival IC50. The method, then: Clonicity assays were conducted to determine the toxicity of FM19G11 in p53-proficient (HT29 and HCT116/p53^+/+) and p53-deficient (HCT116/p53^-/-) tumor cells. Once the HT-29, HCT116/p53^+/+ and HCT116/p53^-/- cells were adhered to the culture plate, they were stimulated with increasing concentrations of FM19G11 (0.5, 1, 5, 10, 20, 50 µM) for 72 hours. After 10 days of stimulation, the number of colonies formed in the plates of treated and untreated cells was determined.
Results of the clonicity assays of HT29 human colon cancer cells, HCT116 cells treated with FM19G11 were monitored up to 10 after the treatment (Figure 28). The IC50 was determined by extrapolating the percentage with the concentration. FM19G11 was used at concentrations: 0.5, 1, 5, 10, 50, 100, 200 µM

A further data set deals with MLH1 and MSH6. Put plainly: Western blot of mismatch repair proteins and acetyllysine in C17.2 neural stem cells. Format: cell-based, mouse. The settings on record: 500 nM; for expression of the repair proteins (MMRs: MLH1, MSH6): normoxia or hypoxia. From the text:
According to the results obtained, the C17.2 neural stem cell subjected to hypoxia experienced repression in the DNA repair (mismatch repair, MMR) system. […] The monoclonal anti MLH1 and MSH6 antibodies were used in the analysis, Nx referring to normoxia and Hx to hypoxia.
The monoclonal antibodies anti-acetyllysine, anti-MLH1 and MSH6 as well as against beta-actin used as a loading control were used in the analysis; wherein Nx refers to Normoxia and Hx to hypoxia.
Background: Immunoblotting shows a protein as a band on a membrane.

With `Cc1ccc(C(=O)COC(=O)c2cccc(NC(=O)c3ccc([N+](=O)[O-])cc3[N+](=O)[O-])c2)cc1` [FM19G11, 2-oxo-2-(p-tolyl)ethyl 3-((2,4-dinitro)benzamido)benzoate], the “increase of both PHD3 and VEGF (mRNA)” value in the data set on PHD3 and VEGF is recorded as “significantly inhibited”. Also, the induced mortality in data set [1] (0.5 mM microinjected into the chorionic space, n=15) is on record as 20%. The “viability of the embryos” value in data set [1] (10 microM and 50 microM in the well) is recorded as “does not affect the viability”. For the same compound, the lethality entry in data set [1] (10 microM and 50 microM in the well, blastula and neurula stages) is on record as “no significant lethality”. For the same compound, the half-maximal inhibitory concentration (IC50) in the data set on HCT116/p53+/+ is 3.5 µM. Besides, in the data set on MLH1 and MSH6, the “overall degree of acetylation of different proteins (anti-acetyllysine)” value is “increases the overall degree of acetylation” and the “expression of the repair proteins (MMRs: MLH1, MSH6)” value was “capable of recovering the expression of the MMRs more effectively than TSA; also recorded: recovered”. The “expression of the repair proteins (MMRs: MLH1, MSH6)” value with MLH1 and MSH6 (listed as 19G11) was “capable of reestablishing the expression”.
